{"source": "patent EP4763845A1", "about": "“CYANO AROMATIC RING DERIVATIVE AND PHARMACEUTICAL USE THEREOF” (Haisco Pharmaceutical Group Co., Ltd., priority 2023, dated 2025)", "key": {"[1]": {"test": "Pharmacokinetic test in rats", "format": "in vivo, SD rats", "settings": "i.g. (5 mg/kg), vehicle 5% DMSO+5% Solutol+10% PEG400+80% (20% SBE-β-CD)", "procedure": "Experimental objective: In this experiment, a single dose of the test compound was administered to SD rats via intravenous administration and intragastric gavage, and the concentration of the test compound in plasma of the rats was measured to evaluate the pharmacokinetic profile of the test compound in the rats.\nExperimental animals: Male SD rats, 200-220 g, 6 rats/compound, purchased from Chengdu Ddossy Experimental Animals Co., Ltd.\nExperimental method: On the day of the experiment, 6 SD rats were randomly grouped according to their body weights. The animals were fasted with water available for 12 to 14 h one day before the administration, and were fed 4 h after the administration. Table 3 Administration information of pharmacokinetic test in rats\nSampling: Before and after the administration, 0.1 mL of blood was taken from the orbits under isoflurane anaesthesia, and placed in an EDTAK2 centrifuge tube. Centrifugation was carried out at 5000 rpm at 4°C for 10 min, and the plasma was collected.\nThe plasma collection time points for IV&PO groups were 0, 5 min, 15 min, 30 min, 1 h, 2 h, 4 h, 7 h, 24 h, and 48 h.\nBefore analysis and detection, all samples were stored at -60°C. The samples were analysed quantitatively by LC-MS/MS. Table 4 Pharmacokinetic parameters of compounds of the present invention in plasma of rats"}, "hERG potassium channel": {"target": "T1, hERG potassium channel (Homo sapiens, UniProt Q12809)", "T1 construct": "expressed in transfected cells; host or cells: CHO cells stably expressing hERG", "T1 sequence (Q12809 whole entry)": "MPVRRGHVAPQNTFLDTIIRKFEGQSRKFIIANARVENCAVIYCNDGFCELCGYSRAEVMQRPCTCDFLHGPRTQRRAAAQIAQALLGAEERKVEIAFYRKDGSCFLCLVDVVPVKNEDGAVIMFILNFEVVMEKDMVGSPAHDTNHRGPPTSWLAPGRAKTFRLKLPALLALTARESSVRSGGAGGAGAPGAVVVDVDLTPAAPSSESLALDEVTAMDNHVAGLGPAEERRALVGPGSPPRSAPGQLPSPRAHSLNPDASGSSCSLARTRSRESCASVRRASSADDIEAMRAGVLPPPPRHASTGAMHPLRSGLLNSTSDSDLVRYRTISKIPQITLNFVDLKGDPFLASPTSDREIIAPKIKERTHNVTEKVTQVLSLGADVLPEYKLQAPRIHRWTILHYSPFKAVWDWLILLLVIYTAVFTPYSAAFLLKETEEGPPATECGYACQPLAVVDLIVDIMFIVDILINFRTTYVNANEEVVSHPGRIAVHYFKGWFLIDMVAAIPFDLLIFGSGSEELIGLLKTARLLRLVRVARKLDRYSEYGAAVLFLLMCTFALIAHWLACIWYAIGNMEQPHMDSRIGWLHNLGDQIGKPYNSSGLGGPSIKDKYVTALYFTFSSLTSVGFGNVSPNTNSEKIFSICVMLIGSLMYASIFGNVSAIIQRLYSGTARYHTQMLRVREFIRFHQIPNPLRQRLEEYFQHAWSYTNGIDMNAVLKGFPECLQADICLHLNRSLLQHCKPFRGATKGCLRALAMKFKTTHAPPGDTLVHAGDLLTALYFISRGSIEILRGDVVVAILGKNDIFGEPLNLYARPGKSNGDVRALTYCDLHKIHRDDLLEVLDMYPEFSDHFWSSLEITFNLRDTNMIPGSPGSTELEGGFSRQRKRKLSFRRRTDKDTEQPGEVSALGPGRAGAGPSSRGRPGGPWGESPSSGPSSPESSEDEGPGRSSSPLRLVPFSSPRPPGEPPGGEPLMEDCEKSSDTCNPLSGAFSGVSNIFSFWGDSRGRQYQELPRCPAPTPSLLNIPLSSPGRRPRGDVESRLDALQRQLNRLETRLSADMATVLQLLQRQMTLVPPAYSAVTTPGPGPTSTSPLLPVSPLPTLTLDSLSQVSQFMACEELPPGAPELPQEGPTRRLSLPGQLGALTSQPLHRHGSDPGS", "test": "hERG potassium ion channel test (manual patch-clamp, CHO cells)", "format": "cell-based", "settings": "chinese hamster; inhibitory activity against hERG potassium channel current, CHO cells, whole cell patch-clamp; read-out: IC50"}}}
{"compound": "CC1(C)[C@H](NC(=O)c2ccc(N3CCC(CN4CCN5c6cc(F)c(C7CCC(=O)NC7=O)cc6CC[C@H]5C4)CC3)cc2)C(C)(C)[C@H]1Oc1ccc(C#N)c2ncccc12", "note": "(stereo partly drawn) [Compound 31]", "values": [{"measurement": "F", "setting": "[1]", "result": "49.1+12%"}, {"measurement": "AUC(0-t)", "setting": "[1]; rat, plasma, po", "result": "5430 ± 1360", "unit": "ng·h/mL"}, {"measurement": "IC50", "setting": "hERG potassium channel", "result": "> 40", "unit": "µM"}]}
